# From patent US7781591B2, “Substituted 3-cyanopyridines as protein kinase inhibitors” (Wyeth LLC, priority 2006, dated 2010)
# Biological target: T1, human PKCθ full length enzyme (Homo sapiens, UniProt Q04759)
# T1 construct: human PKCθ full length enzyme (Panvera Cat# P2996); purchased Panvera P2996
# Experiment: PKCθ IMAP assay (fluorescence polarization)
# Type: biochemical
# Settings: human PKCθ full length enzyme, IMAP; average value; read-out: IC50 PKCθ IMAP
# Method: The reaction buffer was prepared by diluting the 5× stock reaction buffer and adding DTT to obtain a concentration of 3.0 mM. […] The final concentration of compound was 2× and 10% DMSO. DMSO was added to the rest of the master mix to increase the concentration to 10%. 10 μl of the master mix containing 10% DMSO was added to the rest of the wells on the plate except the 2nd column. 20 μl was transferred from the first column to the 2nd column. The compounds were serially diluted in 2:1 ratio starting from the 2nd column. A 2× ([…]) PKCθ solution was made in the reaction buffer. 10 μl of the PKCθ solution was added to every well to achieve these final concentrations: PKCθ—1 nM; ATP—6 μM; peptide—100 nM; DMSO—5%. Samples were incubated for 25 minutes at room temperature. The binding reagent was prepared by diluting the beads in 1× binding buffer to 800:1. 50 μl of the binding reagent was added to every well and incubated for 20 minutes. FP was measured using Envision2100 (PerkinElmer Life Sciences). Wells with no ATPs and wells with no enzymes were used as controls.
# T1 sequence (Q04759 whole entry): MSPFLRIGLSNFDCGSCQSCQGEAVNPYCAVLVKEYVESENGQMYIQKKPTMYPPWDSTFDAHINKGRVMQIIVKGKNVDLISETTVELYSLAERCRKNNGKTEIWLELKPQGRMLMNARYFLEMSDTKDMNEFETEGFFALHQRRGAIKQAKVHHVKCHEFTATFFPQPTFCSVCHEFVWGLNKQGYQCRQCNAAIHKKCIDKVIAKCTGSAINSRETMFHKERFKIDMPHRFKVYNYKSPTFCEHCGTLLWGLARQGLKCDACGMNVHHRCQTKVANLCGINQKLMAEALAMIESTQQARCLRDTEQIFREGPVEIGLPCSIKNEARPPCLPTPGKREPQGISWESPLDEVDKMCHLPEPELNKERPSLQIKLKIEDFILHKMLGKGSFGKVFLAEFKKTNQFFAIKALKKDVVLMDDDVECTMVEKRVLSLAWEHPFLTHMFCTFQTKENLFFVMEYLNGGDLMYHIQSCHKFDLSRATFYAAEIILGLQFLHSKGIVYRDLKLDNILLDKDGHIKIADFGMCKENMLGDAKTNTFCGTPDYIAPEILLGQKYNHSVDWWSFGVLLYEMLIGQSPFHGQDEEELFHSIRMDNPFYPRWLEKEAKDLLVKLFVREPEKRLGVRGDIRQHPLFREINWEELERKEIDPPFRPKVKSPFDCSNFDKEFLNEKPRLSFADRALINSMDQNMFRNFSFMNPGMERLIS
row,Molecule,IC50
1,"N#Cc1cncc(-c2cccc(-c3ccc(C(=O)NCCN4CCCC4)cc3)c2)c1Nc1ccc2[nH]ccc2c1 [Compound 203, 3′-[5-cyano-4-(1H-indol-5-ylamino)pyridin-3-yl]-N-(2-pyrrolidin-1-ylethyl)biphenyl-4-carboxamide]",290 nM
2,"Cc1c(Nc2c(C#N)cncc2-c2cc3cc(OCCN4CCN(C)CC4)ccc3o2)ccc2[nH]ccc12 [Compound 438, 4-[(4-methyl-1H-indol-5-yl)amino]-5-{5-[2-(4-methylpiperazin-1-yl)ethoxy]-1-benzofuran-2-yl}nicotinonitrile]",4 nM
3,"COc1ccc(-c2cncc(C#N)c2Nc2ccc3[nH]ccc3c2)cc1OCCN(CCO)CCO [Compound 237, 5-(3-{2-[bis(2-hydroxyethyl)amino]ethoxy}-4-methoxyphenyl)-4-(1H-indol-5-ylamino)nicotinonitrile]",4320 nM
4,"CCN(CC)Cc1ccc2oc(-c3cncc(C#N)c3Nc3cc4cc[nH]c4cc3C)cc2c1 [Compound 500, 5-{5-[(diethylamino)methyl]-1-benzofuran-2-yl}-4-[(6-methyl-1H-indol-5-yl)amino]nicotinonitrile]",5 nM
5,"COCCNCCOc1cc(-c2cncc(C#N)c2Nc2ccc3[nH]ccc3c2)ccc1OC [Compound 182, 4-(1H-indol-5-ylamino)-5-(4-methoxy-3-{2-[(2-methoxyethyl)amino]ethoxy}phenyl)nicotinonitrile]",120 nM
6,"COc1ccc(-c2cncc(C#N)c2Nc2ccc3[nH]ccc3c2)cc1OCCNc1nnc(C)s1 [Compound 183, 4-(1H-indol-5-ylamino)-5-(4-methoxy-3-{2-[(5-methyl-1,3,4-thiadiazol-2-yl)amino]ethoxy}phenyl)nicotinonitrile]",70 nM
7,"COc1cc(Br)c(-c2cncc(C#N)c2Nc2ccc3[nH]ccc3c2)cc1OC [Compound 246, 5-(2-bromo-4,5-dimethoxyphenyl)-4-(1H-indol-5-ylamino)nicotinonitrile]",160 nM
8,"Cc1c(Nc2c(C#N)cncc2-c2cccc(-c3cccs3)c2)ccc2[nH]ccc12 [Compound 304, 4-[(4-methyl-1H-indol-5-yl)amino]-5-[3-(2-thienyl)phenyl]nicotinonitrile]",110 nM
9,"COc1cccc(Cl)c1-c1cncc(C#N)c1Nc1ccc2[nH]ccc2c1C [Compound 375, 5-(2-chloro-6-methoxyphenyl)-4-[(4-methyl-1H-indol-5-yl)amino]nicotinonitrile]",150 nM
10,"CN1CCN(Cc2ccc(-c3cccc(-c4cncc(C#N)c4Nc4ccc5[nH]ccc5c4)c3)s2)CC1 [Compound 184, 4-(1H-indol-5-ylamino)-5-(3-{5-[(4-methylpiperazin-1-yl)methyl]-2-thienyl}phenyl)nicotinonitrile]",260 nM
11,"N#Cc1cncc(-c2cccc(-c3ccc(C(=O)NCCCCO)cc3)c2)c1Nc1cccc2[nH]ccc12 [Compound 308, 3′-[5-cyano-4-(1H-indol-4-ylamino)pyridin-3-yl]-N-(4-hydroxybutyl)biphenyl-4-carboxamide]",30 nM
12,"Cc1c(Nc2c(C#N)cncc2-c2ccsc2)ccc2[nH]ccc12 [Compound 562, 4-[(4-methyl-1H-indol-5-yl)amino]-5-(3-thienyl)nicotinonitrile]",12 nM
13,"Cc1c(Nc2c(C#N)cncc2-c2cc3cc(CNCc4ccncc4)ccc3o2)ccc2[nH]ccc12 [Compound 400, 4-[(4-methyl-1H-indol-5-yl)amino]-5-(5-{[(pyridin-4-ylmethyl)amino]methyl}-1-benzofuran-2-yl)nicotinonitrile]",2 nM
14,"Cc1c(Nc2c(C#N)cncc2-c2ccc(N3CCOCC3)nc2)ccc2[nH]ccc12 [Compound 507, 4-[(4-methyl-1H-indol-5-yl)amino]-6′-morpholin-4-yl-3,3′-bipyridine-5-carbonitrile]",30 nM
15,"CN(C)Cc1ccc(-c2cccc(-c3cncc(C#N)c3Nc3cccc4[nH]ccc34)c2)s1 [Compound 315, 5-(3-{5-[(dimethylamino)methyl]-2-thienyl}phenyl)-4-(1H-indol-4-ylamino)nicotinonitrile]",10 nM
16,"N#Cc1cncc(-c2cc3cc(CNCCCO)ccc3s2)c1Nc1cccc2[nH]ccc12 [Compound 275, 5-(5-{[(3-hydroxypropyl)amino]methyl}-1-benzothien-2-yl)-4-(1H-indol-4-ylamino)nicotinonitrile]",2 nM
17,"COc1ccc(-c2cncc(C#N)c2Nc2cccc3[nH]ccc23)cc1OCCNCCO [Compound 249, 5-(3-{2-[(2-hydroxyethyl)amino]ethoxy}-4-methoxyphenyl)-4-(1H-indol-4-ylamino)nicotinonitrile]",30 nM
18,"Cc1c(Nc2c(C#N)cncc2-c2csc(CN3CCN(C)CC3)c2)ccc2[nH]ccc12 [Compound 518, 4-[(4-methyl-1H-indol-5-yl)amino]-5-{5-[(4-methylpiperazin-1-yl)methyl]-3-thienyl}nicotinonitrile]",5 nM

row,Molecule,IC50
1,"Cc1c(Nc2c(C#N)cncc2-c2ccc(OCCCN3CCOCC3)cc2)ccc2[nH]ccc12 [Compound 473, 4-[(4-methyl-1H-indol-5-yl)amino]-5-[4-(3-morpholin-4-ylpropoxy)phenyl]nicotinonitrile]",24 nM
2,"N#Cc1cncc(-c2cccc(-c3ccoc3)c2)c1Nc1ccc2[nH]ccc2c1 [Compound 142, 5-[3-(3-furyl)phenyl]-4-(1H-indol-5-ylamino)nicotinonitrile]",120 nM
3,"N#Cc1cncc(-c2cccc(OCCNCCO)c2)c1Nc1ccc2[nH]ccc2c1 [Compound 176, 5-(3-{2-[(2-hydroxyethyl)amino]ethoxy}phenyl)-4-(1H-indol-5-ylamino)nicotinonitrile]",30 nM
4,"Cc1ccc(-c2cccc(-c3cncc(C#N)c3Nc3ccc4[nH]ccc4c3)c2)cc1 [Compound 128, 4-(1H-indol-5-ylamino)-5-(4′-methylbiphenyl-3-yl)nicotinonitrile]",130 nM
5,"COc1ccc(-c2cncc(C#N)c2Nc2cccc3cc[nH]c23)cc1OC [Compound 544, 5-(3,4-dimethoxyphenyl)-4-(1H-indol-7-ylamino)nicotinonitrile]",737 nM
6,"Cc1c(Nc2c(C#N)cncc2-c2ccc(OCCNCc3ccccc3)cc2)ccc2[nH]ccc12 [Compound 419, 5-{4-[2-(benzylamino)ethoxy]phenyl}-4-[(4-methyl-1H-indol-5-yl)amino]nicotinonitrile]",4 nM
7,4-(1H-indol-4-ylamino)-5-(4-methoxy-3-{2-[(3-pyrrolidin-1-ylpropyl)amino]ethoxy}phenyl)nicotinonitrile [Compound 340],8 nM
8,"N#Cc1cncc(-c2cc3ccccc3o2)c1Nc1ccc2[nH]ccc2c1 [Compound 268, 5-(1-benzofuran-2-yl)-4-(1H-indol-5-ylamino)nicotinonitrile]",10 nM
9,"COc1ccc(-c2cncc(C#N)c2Nc2ccc3[nH]ccc3c2)cc1OCCNCc1ccccn1 [Compound 241, 4-(1H-indol-5-ylamino)-5-(4-methoxy-3-{2-[(pyridin-2-ylmethyl)amino]ethoxy}phenyl)nicotinonitrile]",80 nM
10,"COc1ccc(-c2cncc(C#N)c2Nc2ccc3[nH]ccc3c2)cc1OCCN1CCOCC1 [Compound 230, 4-(1H-indol-5-ylamino)-5-[4-methoxy-3-(2-morpholin-4-ylethoxy)phenyl]nicotinonitrile]",330 nM
11,"Cc1c(Nc2c(C#N)cncc2-c2ccc(OCCN3CCN(C)CC3)cc2)cc(Cl)c2[nH]ccc12 [Compound 535, 4-[(7-chloro-4-methyl-1H-indol-5-yl)amino]-5-{4-[2-(4-methylpiperazin-1-yl)ethoxy]phenyl}nicotinonitrile]",38 nM
12,"Cc1c(Nc2c(C#N)cncc2-c2ccnn2C)ccc2[nH]ccc12 [Compound 583, 4-[(4-methyl-1H-indol-5-yl)amino]-5-(1-methyl-1H-pyrazol-5-yl)nicotinonitrile]",61 nM
13,"CN(C)S(=O)(=O)c1ccc(-c2cncc(C#N)c2Nc2cccc3[nH]ccc23)cc1 [Compound 326, 4-[5-cyano-4-(1H-indol-4-ylamino)pyridin-3-yl]-N,N-dimethylbenzenesulfonamide]",190 nM
14,"N#Cc1cncc(-c2cccc(-c3ccc(C(=O)N4CCCC4)cc3)c2)c1Nc1cccc2[nH]ccc12 [Compound 149, 4-(1H-indol-4-ylamino)-5-[4′-(pyrrolidin-1-ylcarbonyl)biphenyl-3-yl]nicotinonitrile]",70 nM
15,"Cc1c(Nc2c(C#N)cncc2-c2ccc(CN3CCC(N(C)C)CC3)o2)ccc2[nH]ccc12 [Compound 436, 5-(5-{[4-(dimethylamino)piperidin-1-yl]methyl}-2-furyl)-4-[(4-methyl-1H-indol-5-yl)amino]nicotinonitrile]",1 nM
16,"Cc1c(Nc2c(C#N)cncc2-c2ccc(NC(=O)OCc3ccccc3)c(F)c2)ccc2[nH]ccc12 [Compound 527, benzyl (4-{5-cyano-4-[(4-methyl-1H-indol-5-yl)amino]pyridin-3-yl}-2-fluorophenyl)carbamate]",27 nM
17,"COCCOc1ccc(-c2cncc(C#N)c2Nc2ccc3[nH]ccc3c2C)cc1 [Compound 482, 5-[4-(2-methoxyethoxy)phenyl]-4-[(4-methyl-1H-indol-5-yl)amino]nicotinonitrile]",11 nM
18,"Cc1c(Nc2c(C#N)cncc2-c2cccnc2Cl)ccc2[nH]ccc12 [Compound 471, 2′-chloro-4-[(4-methyl-1H-indol-5-yl)amino]-3,3′-bipyridine-5-carbonitrile]",156 nM
